Results reported in publication PMC6820371, “Terbium-161 for PSMA-targeted radionuclide therapy of prostate cancer” (European Journal of Nuclear Medicine and Molecular Imaging, 2019).

System: PC-3 PIP tumor cells
Experiment: Cell viability assay (MTT assay)
Format: cell-based, human
Experimental: The detailed methods of these studies, including dosimetric calculations, are described in the Supplementary material. The results were analyzed for statistical significance by a two-way ANOVA with Sidak’s multiple comparison post-test using Graph Pad Prism (version 7).
Methods: Tumor cell viability was assessed using a 3-(4,5-dimethylthiazol-2-yl)-2,5-diphenyltetrazolium bromide (MTT) assay as described by Mosmann. PC-3 PIP tumor cells (2500 cells in 200 μL RPMI medium with supplements) were seeded in 96-well plates and incubated overnight (37°C; 5% CO2) to allow adhesion of the tumor cells. The supernatants were removed and the tumor cells were washed once with 200 μL PBS. Afterwards, the tumor cells were incubated in 200 μL RPMI medium (without supplements) containing ^161Tb-PSMA-617 or ^177Lu-PSMA-617 (0.01‒20 MBq/mL), respectively, or just RPMI medium without addition of radioligands. PSMA-negative PC-3 flu tumor cells were also treated with these radioligands under the same experimental conditions using the same concentration range. Additional cell viability assays were performed with PC-3 PIP tumor cells incubated with RPMI medium (without supplements) containing ^161Tb-diethylenetriaminepentaacetic acid (DPTA) or ^177Lu-DTPA (0.01 – 20 MBq/mL). After 4 h incubation (37 °C; 5% CO2), the tumor cells were washed once with 200 μL PBS, followed by the addition of 200 μL of RPMI medium (with supplements) to each well. The tumor cells were left to grow for 6 days under standard cell culture conditions (37 °C, 5% CO2). At Day 6 after treatment, MTT reagent (5 mg/mL in PBS, 30 μL per well) was added to each well to allow the formation of dark-violet formazan crystals within 4 h incubation. The crystals were dissolved by the addition of dimethyl sulfoxide to determine the absorbance at 560 nm using a microplate reader (Victor X3, Perkin Elmer). Cell viability was quantified by expressing the absorbance of the test samples as percentage of the absorbance of control (untreated) cell samples which was set to 100%. Statistical analysis was performed using a two-way ANOVA with Sidak’s multiple comparison post-test in Graph Pad Prism (version 7).

O=C([O-])CN1CCN(CC(=O)[O-])CCN(CC(=O)NCC2CCC(C(=O)NC(Cc3ccc4ccccc4c3)C(=O)NCCCCC(NC(=O)NC(CCC(=O)O)C(=O)O)C(=O)O)CC2)CCN(CC(=O)[O-])CC1.[161Tb+3] (centres unmarked) [^161Tb-PSMA-617]
Reduction of tumor-cell viability compared to ^177Lu-PSMA-617 (0.1–10 MBq/mL, p < 0.05): significantly more effective | Effectiveness in vitro relative to ^177Lu-PSMA-617 (viability and survival of PC-3 PIP tumor cells): up to 3 fold
